The source of these data is ChEMBL document CHEMBL5380795, “Design, Synthesis, and Bioactivity Investigation of Cyclic Lipopeptide Antibiotics Containing Eight to Nine Amino Acids” (J Med Chem, 2023).

Each structure is given as a SMILES string. Values after ≈ are worked out from the molar mass of the structure shown. Active and inactive are the calls of the source. The rule behind the calls is not given here.

For series [1], the system named is Escherichia coli. As to the kind of experiment: Potentiation of rifampicin induced antibacterial activity in Escherichia coli ATCC 25922 assessed as rifampicin MIC at 0.25 ug/ml incubated for 18 to 24 hrs by broth microdilution method (reference value: 2 ug/ml). The series is classed as functional. The conditions noted are these: dose 0.25 µg/ml, time 18-24 hrs.

The subject of series [2] is Staphylococcus aureus. Description: Antibacterial activity against methicillin resistant Staphylococcus aureus ATCC 33591 assessed as inhibition of bacterial growth incubated for 18 to 24 hrs by broth microdilution method. The series is classed as functional. To be noted: time 18-24 hrs. For orientation: Dilution methods test growth across graded concentrations, often in twofold steps.

A short description of series [3]: Clearance in overnight fasted Sprague-Dawley rat at 4 mg/kg, ip measured for 24 hrs by LC-MS/MS analysis. It counts as ADME, organism-based. The conditions noted are these: in vivo.
Series [4] has as its system Pseudomonas aeruginosa. As to the kind of experiment: Antibacterial activity against Pseudomonas aeruginosa clinical isolate 19-1 assessed as inhibition of bacterial growth incubated for 18 to 24 hrs by broth microdilution method. To be noted: time 18-24 hrs. The series is classed as functional.
Series [5] relates to Escherichia coli. As to the kind of experiment: Potentiation of rifampicin induced antibacterial activity in Escherichia coli ATCC 25922 assessed as rifampicin MIC at 0.125 ug/ml incubated for 18 to 24 hrs by broth microdilution method (reference value: 2 ug/ml). To be noted: dose 0.125 µg/ml, time 18-24 hrs. It counts as functional.
Series [6] has as its system Lipopolysaccharide (LPS). Description: Binding affinity to LIP-1 sensor chip immobilized Escherichia coli LPS assessed as dissociation constant measured for 600 secs by SPR analysis. Background: In SPR one partner is held on a chip, and binding of the other changes the refractive index at the surface.
For series [7], the system named is Acinetobacter baumannii. Description: Antibacterial activity against carbapenem resistant Acinetobacter baumannii clinical isolate 19-8 assessed as inhibition of bacterial growth incubated for 18 to 24 hrs by broth microdilution method. It counts as functional. The conditions noted are these: time 18-24 hrs.
Series [8] deals with Escherichia coli. Description: Antibacterial activity against Escherichia coli NCTC 13353 assessed as inhibition of bacterial growth incubated for 18 to 24 hrs by broth microdilution method. It counts as functional. The conditions noted are these: time 18-24 hrs.
In series [9] the test system is Pseudomonas aeruginosa. Description: Antibacterial activity against carbapenem resistant Pseudomonas aeruginosa clinical isolate 17-1 assessed as inhibition of bacterial growth incubated for 18 to 24 hrs by broth microdilution method. The series is classed as functional. To be noted: time 18-24 hrs.
In series [10] the test system is Escherichia coli. As to the kind of experiment: Potentiation of rifampicin induced antibacterial activity in Escherichia coli ATCC 25922 assessed as rifampicin MIC at 0.06 ug/ml incubated for 18 to 24 hrs by broth microdilution method (reference value: 2 ug/ml). The series is classed as functional. The conditions noted are these: dose 0.06 µg/ml, time 18-24 hrs.

Series [11] concerns Escherichia coli. As to the kind of experiment: Bactericidal activity against Escherichia coli ATCC BAA-2523 assessed as log reduction in bacterial count by measuring reduction in CFU/ml at 4 times MIC measured after 24 hrs by time-kill assay. The series is classed as functional.
The test system of series [12] is Escherichia coli. Description: Antibacterial activity against Escherichia coli ATCC BAA-2523 infected in ICR mouse assessed as mouse survival at 2 mg/kg, iv administered into tail vein and measured daily for 7 days relative to control. It counts as functional. The conditions noted are these: ATCC BAA-2523, 168 h, time 7 day.
For series [13], the system named is Cell membrane. Description: Induction of outer membrane permeabilization in Escherichia coli ATCC 25922 assessed as increase in fluorescence at 1 to 16 ug/ml measured after 3 mins by NPN-dye based assay. To be noted: dose 1-16 µg/ml. The series is classed as subcellular.

As to `CCCCCCC[C@@H](O)CC(=O)N[C@H](CCN)C(=O)N[C@H]1CCNC(=O)[C@H]([C@@H](C)O)NC(=O)[C@H](CCN)NC(=O)[C@H](CCN)NC(=O)[C@H]([C@@H](C)O)NC(=O)[C@@H](Cc2ccccc2)NC(=O)[C@H](CCN)NC1=O`, the minimal inhibitory concentration (MIC) in series [1] was not above 0.06 µg/mL; in series [2] it was more than 64 µg/mL; in series [4] it was 0.5 µg/mL (≈ 0.49 µM); in series [5], not above 0.06 µg/mL; in [7] it was 32 µg/mL (≈ 31.4 µM); in series [8] it was 2 µg/mL (≈ 1.96 µM). In addition, the figures for the MIC in series [9] and in series [10] were 0.5 µg/mL (≈ 0.49 µM) and not above 0.06 µg/mL, respectively. Moreover, the CL/F in [3] turned out to be 3.8 mL/min/kg. The equilibrium dissociation constant (Kd) in [6] worked out at 480 nM. In series [11], the “log(activity)” value turned out to be 0.6. For the same compound, in [12], the survival at 2 mg/kg was determined as 62.5%. For the same compound, the outcome in [13] was Active.

The MIC is the lowest concentration that inhibits growth of the organism. By CL/F is commonly meant clearance divided by bioavailability, as obtained after extravascular dosing. What is called Kd is the concentration at which binding is half-saturated.
